{
  "source": "patent US20240165042A1",
  "about": "“COMPOSITION FOR CONTROLLED RELEASE OF PHYSIOLOGICALLY ACTIVE SUBSTANCES AND PROCESS FOR ITS PREPARATION” (BALCHEM ITALIA S.R.L., priority 2017, published 2024)",
  "assay_type_in_all_cases": "in vitro ADME",
  "key": {"[1]": {"assay": "Total bioavailability in vitro (combination of ruminal by-pass and post-ruminal digestibility)", "experimental": "(§1) The experimental conditions of use were 39° C., 15 rpm, 8 hours presence in the solution with “ruminal” pH of about 6.8. • Daisy^II ANKOM: commercially available laboratory artificial rumen, for determining the degree of ruminal bypass. The experimental conditions of use were 39° C., 8 hours presence in ruminal conditions, buffer solution at “ruminal” pH with insertion of “ruminal inoculum” and re-creation of ruminal anaerobiosis according to a university procedure known to those skilled in the art. The pH normally tested in the quality control phase is 6.8. Pharmaceutical dissolver for determining the degree of post-ruminal digestibility. The experimental conditions of use followed the procedure known to experts in the field as “Boisen Test” and, in particular, they were: • 39° C., 30 rpm, 2 h, buffer solution with “gastric” pH (2.0)+pepsin inoculum. • 39 °C, 30 rpm, 4 h, buffer solution with “intestinal” pH (6.8)+pancreatine inoculum. • 39° C., 30 rpm, 18 h, buffer solution with “intestinal” pH (6.8)+lipase and bile extract inoculum.\n(§2) Then the microgranules were subjected to an evaluation of the degree of ruminal by-pass, post-ruminal digestibility and total bioavailability using the Boisen method."}, "[2]": {"assay": "Degree of ruminal by-pass in vitro (pharmaceutical dissolver / Daisy II ANKOM artificial rumen, 39° C., 8 hours, ruminal pH about 6.8)", "experimental": "In the context of the present invention, the term “ruminal by-pass” indicates the percentage amount by weight of substance reaching the animal post-ruminal area, namely the stomach and the intestine, with respect to the total amount by weight of the orally administered substance.\nThe experimental conditions of use were 39° C., 15 rpm, 8 hours presence in the solution with “ruminal” pH of about 6.8. • Daisy^II ANKOM: commercially available laboratory artificial rumen, for determining the degree of ruminal bypass. The experimental conditions of use were 39° C., 8 hours presence in ruminal conditions, buffer solution at “ruminal” pH with insertion of “ruminal inoculum” and re-creation of ruminal anaerobiosis according to a university procedure known to those skilled in the art. […] Pharmaceutical dissolver for determining the degree of post-ruminal digestibility. The experimental conditions of use followed the procedure known to experts in the field as “Boisen Test” and, in particular, they were: • 39° C., 30 rpm, 2 h, buffer solution with “gastric” pH (2.0)+pepsin inoculum. • 39 °C, 30 rpm, 4 h, buffer solution with “intestinal” pH (6.8)+pancreatine inoculum. • 39° C., 30 rpm, 18 h, buffer solution with “intestinal” pH (6.8)+lipase and bile extract inoculum.\nas §2"}, "[3]": {"assay": "Post-ruminal digestibility in vitro (pharmaceutical dissolver, Boisen Test: gastric pH 2.0 + pepsin, intestinal pH 6.8 + pancreatine, then lipase and bile extract)", "experimental": "as §1, §2"}, "[4]": {"settings": "theoretical administration of 100 g of choline chloride"}, "[5]": {"settings": "theoretical administration of 200 g of product"}},
  "data": [
    {"smiles": "C[N+](C)(C)CCO.[Cl-]", "note": "[Product A, choline chloride]", "values": [
      {"measurement": "Bioavailable Choline Chloride", "setting": "[1]; [4]", "value": 0, "unit": "g"},
      {"measurement": "Bioavailable Choline Chloride", "setting": "[1]; [5]", "value": 0, "unit": "g"},
      {"measurement": "Bypassed Choline Chloride", "setting": "[2]; [4]", "value": 0, "unit": "g"},
      {"measurement": "Choline Chloride lost in the rumen in 8 h", "setting": "[2]; [4]", "value": 101, "unit": "g"},
      {"measurement": "Bypassed Choline Chloride", "setting": "[2]; [5]", "value": 0, "unit": "g"},
      {"measurement": "Choline Chloride lost in the rumen in 8 h", "setting": "[2]; [5]", "value": 198, "unit": "g"},
      {"measurement": "Choline Chloride in faeces", "setting": "[3]; [4]", "value": 0, "unit": "g"},
      {"measurement": "Choline Chloride in faeces", "setting": "[3]; [5]", "value": 0, "unit": "g"}
    ]}
  ]
}
